Source: patent US11723920B2, “Method for treating cancer with a nanoformulation” (Imam Abdulrahman Bin Faisal University, priority 2019, dated 2023)

System: human mammary adenocarcinoma cell line, MCF-7
Assay: Cell viability MTT assay on MCF-7 cells
Assay type: cell-based
Conditions: MCF-7, 48 h
Procedure: Cells were maintained in DMEM (Dulbecco's Modified Eagle Medium) (Gibco, life technologies) supplemented with 10% heat inactivated fetal bovine serum (HI-FBS) (Gibco, life technology), 1% Penicillin Streptomycin (100×— Gibco, life technology), and 1% MEM NEAA (MEM non-essential amino acids) (100×— Gibco, life technology). Cells were kept in a humidified incubator at 37° C. with 5% CO2. For the experimental setup, MCF-7 cells were seeded on a 96-well plate at a density of 20,000 cells/well. On the next day, cells were shifted to the starve media (0.5% HI-FBS containing media) for 24 h before treatment.
For groups B, C, E, and F, treatment concentrations were as follows: 0.025, 0.05, 0.1, and 0.5 mg/mL. […] Therefore, treatment concentrations for group A were as follows: 0.0084, 0.0168, 0.0336, and 0.168 mg/mL. Treatment concentrations used in this experiment for group D were as follows: 0.001125, 0.00225, 0.0045, 0.0225 mg/mL.
The viability of cells was tested using 3-(4,5-dimethylthiazol-2-yl)-2,5-diphenyltetrazolium bromide (MTT) assay. It is based on the ability to reduce MTT relative to formazan crystals. […] The change in color intensity was measured at 570 nm wavelength using SYNERGY-neo2 BioTek ELISA reader. […] The reading of each triplicate was averaged and subtracted from the averaged MTT background control reading. […]

Structure (SMILES): N.N.[Cl][Pt][Cl] [cisplatin]
- effect on cell viability (in words): significantly reduced cell viability
